Data taken from patent US11771705B2, “Adjuvant therapy for use in prostate cancer treatment” (priority 2017, dated 2023).
Read-outs that look alike come from different tables or passages of the source.

What was measured:
[1] = type: in vivo, healthy men
Protocol: A phase I, double-blind, randomised, placebo-controlled, multiple dose study to evaluate the safety, pharmacokinetics and pharmacodynamics of multiple dosages of estetrol in healthy men.
Male participants aged between 40 and 70 years were allocated to one of the following groups: • Group 1: 20 mg E4 (estetrol) or placebo; • Group 2: 40 mg E4 (estetrol) or placebo; • Group 3: 60 mg E4 (estetrol) or placebo.
A total of 15 subjects were assigned to each dose group: 10 subjects were randomised to receive the active treatment (E4), 5 subjects were randomised to receive placebo treatment. In total […] participated in this study.
Dosing began with Group 1. The other groups were dosed consecutively. Dose escalation to the next E4 dose group proceeded based on reported adverse events (AEs), SHBG levels, lipids and haemostatic parameters. The decision to continue with the next higher E4 dose level was made by the Investigator, an independent expert and the Sponsor.
E4 was supplied as tablets and taken orally every morning between 8:00-10:00 am, for 28 days. The total duration of the study, including screening was 84 days for each subject (Screening from Day −28 till Day −1, Clinical part from Day 1 till Day 56).
There were two primary outcome parameters in this study. First primary parameter was the safety evaluation of E4. Safety variables included vital signs, routine laboratory tests, physical examination, ECG measurement and monitoring of (S)AEs.
Second primary parameter was the hormones related to prostate function. FSH, LH, E2, total testosterone, free testosterone and sex hormone-binding globulin (SHBG) were measured.
Secondary parameters included other pharmacodynamic and pharmacokinetic parameters. The pharmacodynamic parameters which were assessed are the following: • Haemostatic factors: (extrinsic) APC-resistance, prothrombin fragment 1+2, free tissue factor pathway inhibitor (TFPI), antithrombin activity, protein S activity, D-dimer, angiotensinogen; • Lipids and lipoproteins: total cholesterol, triglycerides, HDL-cholesterol, LDL-cholesterol and lipoprotein(a) (Lp(a)); • Carbohydrates: fasting serum glucose; • Bone turnover markers: osteocalcin, type I collagen telopeptide (CTX-1) and parathyroid hormone (PTH); • Prostate-specific antigen (PSA).
Pharmacokinetics were evaluated by measuring E4 trough levels on Day 2, 7, 14 and 28. Furthermore, on Day 28 before and at several time points after dosing E4 concentrations were measured.

[2] = tested on: adenocarcinoma of the prostate; assay: Estetrol in prostate cancer patients treated with ADT, randomized placebo controlled (Example 3); type: in vivo, male patients; conditions: GnRH agonist plus 40 mg estetrol per day oral, 24 weeks
From the text: Male patients who have histologically confirmed adenocarcinoma of the prostate and who are qualifying for treatment with androgen deprivation therapy (ADT: GnRH agonist) are included. The study is randomized placebo controlled.
Randomisation takes place after a patient is found to be eligible at the baseline visit. Subjects receive the study medication for a period of 24 weeks in total.
Subjects receive blinded study medication (oral administration) as follows: • Investigational product: GnRH agonist plus 40 mg estetrol (E4) per day; • Placebo: GnRH agonist plus placebo.
Medication should be taken in the morning between 8:00-10:00 AM. All patients concomitantly receive a prophylactic dose of dabigatran (220 mg once daily) or another anticoagulant.
A total of 30 patients is being dosed as follows: 20 patient in the estetrol group and 10 patients in the reference therapy group (placebo).
The primary objective is to assess the additional effects of E4 on total T and free T. Secondary objectives include the assessment of the effects of E4 on SHBG, PSA response and lipids and lipoproteins. […]

[3] = 20 mg or 40 mg daily, cited from earlier work
[4] = type: in vivo, male patients; conditions: average of Day 7 and Day 14
Protocol: For each group dosed at 2, 10, 20, 40 and 60 mg estetrol daily (oral administration), 7 to 10 male patients were tested for their plasma content in estetrol at Day 7 and at Day 14. For each dose group, the average trough level of all patients across both days was calculated.

[5] = tested on: adenocarcinoma of the prostate; assay: Estetrol on testosterone suppression and quality of life in prostate cancer patients treated with ADT (Example 4); type: in vivo, male patients; conditions: GnRH agonist plus 40 mg estetrol monohydrate p.o. per day, 24 weeks
Protocol: Male patients who have histologically confirmed adenocarcinoma of the prostate and who are qualifying for treatment with androgen deprivation therapy (ADT: GnRH agonist) participate in randomized placebo controlled study. Randomisation takes place after a patient is found to be eligible at the baseline visit. Subjects receive the study medication for a period of 24 weeks in total. Subjects receive blinded study medication: • Investigational product: GnRH agonist plus 40 mg estetrol monohydrate (E4) p.o. per day; • Placebo: GnRH agonist plus placebo. Selection of the GnRH agonist is left to the doctors treating the individual patients. Medication is taken in the morning between 8:00-10:00 AM. A total of 60 patients is dosed as follows: 40 patient in the estetrol group and 20 patients in the reference therapy group (placebo). Effects of medication on total T, free T, SHBG, hot flushes, PSA response, endocrine parameters, adrenal androgens and the lipid profile are assessed. Further assessed are the effects on health related quality of life (using the Functional Assessment of Cancer Therapy Prostate (FACT-P) questionnaire and a small questionnaire on the presence and absence of endocrine related symptoms (Q-man questionnaire)) and effects on bone turnover (bone markers).

[6] = Day 28 vs Day 1, 20, 40, 60 mg daily

With `C[C@]12CC[C@@H]3c4ccc(O)cc4CC[C@H]3[C@@H]1[C@@H](O)[C@@H](O)[C@@H]2O` [estetrol] the “HDL Cholesterol” value [1, 6] was “small increase”, the “Lowering effect on LDL Cholesterol” value [1, 6] was “about 20%” and the “TG (triglycerides)” value [1, 6] was “no changes”. The Free testosterone level ([1]; Day 28 vs Day 1, 20, 40, 60 mg daily (FIG. 1A)) was “decreased”, the Total testosterone level ([1]; Day 28 vs Day 1, 20, 40, 60 mg daily (FIG. 1B)) was “decreased” and the SHBG level ([1]; Day 28 vs Day 1, 20, 40, 60 mg daily (FIG. 1C)) was “increase”. For the same compound, the LH level ([1]; Day 28 vs Day 1, 20, 40, 60 mg daily (FIG. 1D)) was “not much change”, the FSH levels ([1]; Day 28 vs Day 1, 20, 40, 60 mg daily (FIG. 1E)) was “decreased” and the “Effects on bone (osteocalcin, CTX-1)” value ([1]; Day 28 vs Day 1, 20, 40, 60 mg daily (FIGS. 2I, 2J)) was “beneficial estrogenic effects”. For the same compound, the “Changes in vital signs, ECG, physical examination and body weight” value ([1]; daily oral dose of 20 mg, 40 mg or 60 mg for 28 days) was “No clinically relevant changes”, the Tolerability ([1]; daily oral dose of 20 mg, 40 mg or 60 mg for 28 days, healthy men aged 40-70 years) was “well tolerated” and the “LH levels after E4 administration” value ([1]; shortly after dosing, only for a few hours) was “decreased”. For the same compound, the “Efficacy and quality of life of ADT treatment for prostate cancer” value [2] was “effective therapy to improve efficacy and quality of life”, the “Libido decreased during treatment” value ([3]; both cohorts) was 8 of 20 and the Nipple tenderness reported ([3]; both cohorts) was 7 of 20. The “Body weight and safety parameters” value ([3]; healthy men 40-70 years) was “did not change”, the Estradiol level ([3]; healthy men 40-70 years) was “decreased” and the FSH level ([3]; healthy men 40-70 years) was “decreased”. For the same compound, the Free testosterone level ([3]; healthy men 40-70 years) was “decreased”, the LH levels ([3]; healthy men 40-70 years) was “did not change” and the SHBG levels ([3]; healthy men 40-70 years) was “increased”. For the same compound, the Total testosterone level ([3]; healthy men 40-70 years) was “decreased”, the Trough plasma level ([4]; daily oral dose 2 mg) was 198 pg/mL and the Trough plasma level ([4]; daily oral dose 10 mg) was 1056 pg/mL. It also gave a Trough plasma level ([4]; daily oral dose 20 mg) of 2187 pg/mL, a Trough plasma level ([4]; daily oral dose 40 mg) of 4417 pg/mL and a Trough plasma level ([4]; daily oral dose 60 mg) of 6157 pg/mL. For the same compound, the “Efficacy of ADT” value [5] was “improves efficacy of ADT” and the “Quality of life of the prostate cancer patients” value [5] was “improves quality of life”.
